In the SangsterLogP compilation:

Assay: method code SF-HPLC, from DOI: 10.1002/qsar.200300824

Question: With `O=c1cc(-c2noc(=S)n2-c2ccccc2)c2ccccc2o1` as the molecule, how does the logP read?
Answer: The logP was 3.03.

Question: Which logP does the source give for `CC1ON=C(c2cc(=O)oc3ccccc23)N1c1ccccc1` (stereo not drawn) here?
Answer: The logP was 2.7.

Question: For `O=c1oc2ccccc2c(C(=NO)Nc2ccccc2)c1Cl`, which logP is on record?
Answer: Its logP is 2.58.

Question: Which logP does the source give for `O=c1oc2ccccc2c(C(CCO)=NO)c1Cl` here?
Answer: The logP was 0.22.

Question: For `O=c1cc(-c2noc(-c3ccccc3)n2)c2ccccc2o1`, which logP is on record?
Answer: Its logP is 3.22.

Question: With `Cc1nc(-c2cc(=O)oc3ccccc23)no1` as the molecule, how does the logP read?
Answer: Its logP is 2.12.

Question: Which logP does the source give for `O=c1cc(C2=NOCN2)c2ccccc2o1` here?
Answer: The logP was 1.98.

Question: With `O=c1cc(C2=NOCN2c2ccccc2)c2ccccc2o1` as the molecule, how does the logP read?
Answer: The logP was 2.45.

Question: For `CC(=O)ON=C(N)c1cc(=O)oc2ccccc12`, which logP is on record?
Answer: Its logP is 1.

Question: For `COc1ccc(-c2noc(-c3cc(=O)oc4ccccc34)n2)cc1`, which logP is on record?
Answer: The logP was 3.07.

Question: For `COc1ccc(C2=NOC(c3cc(=O)oc4ccccc34)O2)cc1` (stereo not drawn), which logP is on record?
Answer: Its logP is 3.04.

Question: Which logP does the source give for `CC1NC(c2cc(=O)oc3ccccc23)=NO1` (stereo not drawn) here?
Answer: The logP was 1.93.

Question: Which logP does the source give for `O=c1cc(C=NNc2ccccc2)c2ccccc2o1` here?
Answer: The logP was 3.63.

Question: Which logP does the source give for `O=c1cc(-c2ncon2)c2ccccc2o1` here?
Answer: The logP was 1.95.

Question: With `O=c1cc(C2=NOS(=O)N2c2ccccc2)c2ccccc2o1` (stereo not drawn) as the molecule, how does the logP read?
Answer: The logP was 2.16.

Question: With `Cc1ccc(NC(=NO)c2c(Cl)c(=O)oc3ccccc23)cc1` as the molecule, how does the logP read?
Answer: The logP was 2.89.

Question: For `COc1ccc(-c2nc(-c3cc(=O)oc4ccccc34)no2)cc1`, which logP is on record?
Answer: The logP was 2.98.

Question: For `O=c1oc2ccccc2c(C(=NO)NC2CCCCC2)c1Cl`, which logP is on record?
Answer: The logP was 2.78.
